Assay results: patent US11149011B2, “Compounds and methods for IDO and TDO modulation, and indications therefor” (Plexxikon Inc., priority 2018, dated 2021)

How the values were obtained:
IDO1 = biological target: T1, IDO1 (Homo sapiens, UniProt P14902); test: IDO enzymatic assay; assay type: biochemical; conditions: geometric mean; read-out: IDO1 GMean: IC50 (μM) (Biochemical Assay)
T1 construct: His tag (N); made in house; host or cells: E. coli
Procedure: (§1) Human IDO or TDO with N-terminal His tag is purified in E. coli. The IDO enzymatic assay is performed using 6 nM IDO and 10 μM L-Trp in the presence of 10 mM ascorbic acid, 5 μM methylene blue, 100 nM catalase and 0.01% Tween 20 in 50 mM sodium phosphate buffer (pH 6.5). 19 μL of above reaction mixture is added to wells of 384 well reaction plate containing 1 μL of various concentrations of test compound or DMSO vehicle and incubated for 20 minutes at room temperature. The TDO enzymatic reaction assay is performed using 1 nM TDO and 350 μM L-Trp in the presence of 10 mM ascorbic acid, 0.4 μM methylene blue, 100 nM catalase and 0.01% Tween 20 in 50 mM sodium phosphate buffer (pH 6.5). 19 μL of above reaction mixture is added to wells of 384 well reaction plate containing 1 μL of various concentrations of test compound or DMSO vehicle and incubated for 70 minutes at room temperature. 16 wells containing all the components of reaction mixture and 5% DMSO serve as high control. 16 well containing all the components except enzyme of reaction mixture and 5% DMSO serves as low control. Both IDO and TDO enzymatic reactions are stopped by addition of 4 μL of 30% TCA and incubated 30 minutes at 50° C. to hydrolyze N-formylkynurenine produced by IDO or TDO to kynurenine. Upon measuring the kynurenine level, the percentage inhibition is calculated at individual concentrations relative to high and low controls. The data is analyzed by using nonlinear regression to generate IC50 values.

[1] = biological target: T2, TDO-expressing HEK293 cell clones (Homo sapiens, UniProt P48775); test: Cell based kynurenine assay, TDO-expressing HEK293 cell clones; conditions: HEK293 cells, 24 hours of incubation, geometric mean; read-out: HEK293 TDO Kynurenine GMean IC50 (μM) (Cellular Assay)
T2 construct: expressed in transfected cells; host or cells: HEK293
Procedure: (§2) IDO1-expressing or TDO-expressing HEK293 cell clones are generated upon stable transfection of plasmids expressing human IDO or human TDO under the control of CMV promoter. Cells are selected in DMEM media supplemented with 10% fetal bovine serum and 1 mg/ml G418 at 37° C. in a humidified incubator supplied with 5% CO2. The assays are performed as follows.
(§3) Cells were seeded in a 96 well plate in 50 μL of culture media at a density of 2.5×10^4 per well. Serial dilutions of compounds (in total volume of 50 μL culture media) are added into cells. 4 wells containing 0.2% DMSO treated cells serve as high controls and 4 wells containing media only with 0.2% DMSO serve as low controls. After 24 hours of incubation, the supernatant was transferred to a 384 well reaction plate and the kynurenine level determined. The percentage inhibition at individual concentrations relative to high and low controls is calculated. The data is analyzed by using nonlinear regression to generate IC50 values.

TDO = biological target: T3, TDO (Homo sapiens, UniProt P48775); test: TDO enzymatic assay; conditions: geometric mean; read-out: TDO GMean: IC50 (μM) (Biochemical Assay)
T3 construct: His tag (N); made in house; host or cells: E. coli
Procedure: as §1

[2] = biological target: T4, IDO1-expressing HEK293 cell clones (Homo sapiens, UniProt P14902); test: Cell based kynurenine assay, IDO1-expressing HEK293 cell clones; conditions: HEK293 cells, 24 hours of incubation, geometric mean; read-out: HEK293 IDO1 Kynurenine GMean IC50 (μM) (Cellular Assay)
T4 construct: expressed in transfected cells; host or cells: HEK293
Procedure: as §2, §3

T3 sequence (P48775 whole entry): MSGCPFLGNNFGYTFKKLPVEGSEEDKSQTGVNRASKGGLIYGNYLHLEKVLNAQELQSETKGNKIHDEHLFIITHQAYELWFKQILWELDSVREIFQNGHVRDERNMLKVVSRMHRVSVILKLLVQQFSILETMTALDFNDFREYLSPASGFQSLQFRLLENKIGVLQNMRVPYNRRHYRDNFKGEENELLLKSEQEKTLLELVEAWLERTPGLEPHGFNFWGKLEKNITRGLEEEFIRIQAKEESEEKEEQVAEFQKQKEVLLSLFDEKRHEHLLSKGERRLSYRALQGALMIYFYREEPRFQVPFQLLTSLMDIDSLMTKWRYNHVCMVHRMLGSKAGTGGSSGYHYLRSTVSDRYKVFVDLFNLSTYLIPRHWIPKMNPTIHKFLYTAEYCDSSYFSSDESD
T2 sequence (P48775 whole entry): as above
T1 sequence (P14902 whole entry): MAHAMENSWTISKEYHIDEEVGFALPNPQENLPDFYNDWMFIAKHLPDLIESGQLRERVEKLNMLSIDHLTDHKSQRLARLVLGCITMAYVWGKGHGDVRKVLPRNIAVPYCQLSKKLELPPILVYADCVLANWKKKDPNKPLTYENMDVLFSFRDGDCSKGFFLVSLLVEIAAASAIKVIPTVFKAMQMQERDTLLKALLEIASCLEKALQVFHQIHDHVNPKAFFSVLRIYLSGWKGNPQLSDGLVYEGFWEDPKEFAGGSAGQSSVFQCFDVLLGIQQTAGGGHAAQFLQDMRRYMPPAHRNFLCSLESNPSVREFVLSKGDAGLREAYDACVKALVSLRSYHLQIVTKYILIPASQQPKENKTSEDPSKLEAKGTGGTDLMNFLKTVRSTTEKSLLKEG
T4 sequence (P14902 whole entry): as above

Compound	IC50 (IDO1) [µM]	IC50 [1] [µM]	IC50 (TDO) [µM]	IC50 [2] [µM]
CC(C)(C1CCN(C(=O)N2CCS(=O)(=O)CC2)CC1)[C@H](O)c1cc(Cl)cc2cn[nH]c12 [Compound P-0022, (S)-(4-(1-(5-chloro-1H-indazol-7-yl)-1-hydroxy-2-methylpropan-2-yl)piperidin-1-yl)(1,1-dioxidothiomorpholino)methanone]	0.0001 to 10	0.0001 to 10	0.0001 to 10	0.0001 to 10
CC(C)(C1CCN(C(=O)NCC2COC2)CC1)[C@H](O)c1cc(Cl)cc2cn[nH]c12 [Compound P-0023, (S)-4-(1-(5-chloro-1H-indazol-7-yl)-1-hydroxy-2-methylpropan-2-yl)-N-(oxetan-3-ylmethyl)piperidine-1-carboxamide]	0.0001 to 10	0.0001 to 10	0.0001 to 10	0.0001 to 10
CC(C)(C1CCN(C(=O)N[C@H]2CCC[C@@H]2O)CC1)[C@H](O)c1cc(Cl)cc2cn[nH]c12 [Compound P-0024, 4-((S)-1-(5-chloro-1H-indazol-7-yl)-1-hydroxy-2-methylpropan-2-yl)-N-((1S,2S)-2-hydroxycyclopentyl)piperidine-1-carboxamide]	0.0001 to 10	0.0001 to 10	0.0001 to 10	0.0001 to 10
CC(C)(C1CCN(C(=O)N[C@H]2CCC[C@H]2O)CC1)[C@H](O)c1cc(Cl)cc2cn[nH]c12 [Compound P-0025, 4-((S)-1-(5-chloro-1H-indazol-7-yl)-1-hydroxy-2-methylpropan-2-yl)-N-((1S,2R)-2-hydroxycyclopentyl)piperidine-1-carboxamide]	0.0001 to 10	0.0001 to 10	0.0001 to 10	0.0001 to 10
CC(C)(C1CCN(C(=O)NCc2cncnc2)CC1)[C@H](O)c1cc(Cl)cc2cn[nH]c12 [Compound P-0026, (S)-4-(1-(5-chloro-1H-indazol-7-yl)-1-hydroxy-2-methylpropan-2-yl)-N-(pyrimidin-5-ylmethyl)piperidine-1-carboxamide]	0.0001 to 10	0.0001 to 10	0.0001 to 10	0.0001 to 10
CC(C)(C1CCN(C(=O)NCc2ncccn2)CC1)[C@H](O)c1cc(Cl)cc2cn[nH]c12 [Compound P-0027, (S)-4-(1-(5-chloro-1H-indazol-7-yl)-1-hydroxy-2-methylpropan-2-yl)-N-(pyrimidin-2-ylmethyl)piperidine-1-carboxamide]	0.0001 to 10	0.0001 to 10	0.0001 to 10	0.0001 to 10
C[C@@H](NC(=O)N1CCC(C(C)(C)[C@H](O)c2cc(Cl)cc3cn[nH]c23)CC1)c1ccccn1 [Compound P-0028, 4-((S)-1-(5-chloro-1H-indazol-7-yl)-1-hydroxy-2-methylpropan-2-yl)-N-((R)-1-(pyridin-2-yl)ethyl)piperidine-1-carboxamide]	0.0001 to 10	0.0001 to 10	0.0001 to 10	0.0001 to 10
CC(=O)N1CCC(C(F)(F)C(O)c2c(F)c(Cl)cc3cn[nH]c23)CC1 (stereo not shown) [Compound P-0056, 1-(4-(2-(5-chloro-6-fluoro-1H-indazol-7-yl)-1,1-difluoro-2-hydroxyethyl)piperidin-1-yl)ethan-1-one]	–	> 10	–	–
O=S1(=O)CC2(CC(O)(c3cc(Cl)cc4cn[nH]c34)C2)C1 [Compound P-0057, 6-(5-chloro-1H-indazol-7-yl)-6-hydroxy-2-thiaspiro[3.3]heptane 2,2-dioxide]	0.0001 to 10	0.0001 to 10	0.0001 to 10	–
CC(C)(C1CCN(C(=O)[C@@H]2CCCN2)CC1)[C@H](O)c1cc(Cl)cc2cn[nH]c12 [Compound P-0138, (4-((S)-1-(5-chloro-1H-indazol-7-yl)-1-hydroxy-2-methylpropan-2-yl)piperidin-1-yl)((S)-1λ^2-pyrrolidin-2-yl)methanone]	–	0.0001 to 10	–	0.0001 to 10
CC(C)(C1CCN(C(=O)[C@H]2CCCN2)CC1)[C@H](O)c1cc(Cl)cc2cn[nH]c12 [Compound P-0139, (4-((S)-1-(5-chloro-1H-indazol-7-yl)-1-hydroxy-2-methylpropan-2-yl)piperidin-1-yl)((R)-1λ^2-pyrrolidin-2-yl)methanone]	–	0.0001 to 10	–	0.0001 to 10
CC(C)(C1CCN(C(=O)[C@@H]2CCNC2)CC1)[C@H](O)c1cc(Cl)cc2cn[nH]c12 [Compound P-0140, (4-((S)-1-(5-chloro-1H-indazol-7-yl)-1-hydroxy-2-methylpropan-2-yl)piperidin-1-yl)((R)-1λ^2-pyrrolidin-3-yl)methanone]	–	> 10	–	0.0001 to 10
CC(C)(C1CCN(C(=O)[C@H]2CCNC2)CC1)[C@H](O)c1cc(Cl)cc2cn[nH]c12 [Compound P-0141, (4-((S)-1-(5-chloro-1H-indazol-7-yl)-1-hydroxy-2-methylpropan-2-yl)piperidin-1-yl)((S)-1λ^2-pyrrolidin-3-yl)methanone]	–	> 10	–	0.0001 to 10
